According to patent US6410735B1, “1-(4-arylpiperazin-1-y1)-ω-[N-(α,ω-dicarboximido)]-alkanes useful as uro-selective α1-adrenoceptor blockers” (Ranbaxy Laboratories Limited, priority 1997, dated 2002):

Legend:
Assay type in all cases: cell-based
β1-adrenoceptor = biological target: T1, β1-adrenoceptor (Rattus norvegicus, UniProt P18090); test: Receptor selectivity, electrically stimulated rat ventricular strips; details: read-out: pKB B-adrenergic (converted)
T1 construct: from tissue; host or cells: rat ventricular strips
Protocol: (§1) Selectivity of action of the present compounds was tested against a range of different receptors, e.g., β1- and α2-adrenergic, muscarinic cholinergic, serotoninergic (5-HT2A), histaminergic (H1), angiotensin II, endothelin (ETA and B,), as well as calcium and potassium channels. Rat aorta was used to study the effect of the compounds on 5-HT2A, ETA, calcium and potassium channels. Angiotensin II receptor antagonistic activity was studied in rabbit aorta. Muscarinic cholinergic receptor and ETB receptor antagonistic activity was studied in rat trachea, while guinea pig trachea was used to study H1 receptor antagonistic activity. Electrically stimulated rat vas deferens was used to investigate the effect of α2-adrenoceptors, while β1-adrenoceptor antagonistic activity was studied using electrically stimulated rat ventricular strips. Results of this selectivity study is shown in (Table 2).

ETA = biological target: T2, ETA (Rattus norvegicus, UniProt P26684); test: Receptor selectivity, rat aorta; details: read-out: pKB ETA (converted)
T2 construct: from tissue; host or cells: rat aorta
T2 sequence (P26684 21-426): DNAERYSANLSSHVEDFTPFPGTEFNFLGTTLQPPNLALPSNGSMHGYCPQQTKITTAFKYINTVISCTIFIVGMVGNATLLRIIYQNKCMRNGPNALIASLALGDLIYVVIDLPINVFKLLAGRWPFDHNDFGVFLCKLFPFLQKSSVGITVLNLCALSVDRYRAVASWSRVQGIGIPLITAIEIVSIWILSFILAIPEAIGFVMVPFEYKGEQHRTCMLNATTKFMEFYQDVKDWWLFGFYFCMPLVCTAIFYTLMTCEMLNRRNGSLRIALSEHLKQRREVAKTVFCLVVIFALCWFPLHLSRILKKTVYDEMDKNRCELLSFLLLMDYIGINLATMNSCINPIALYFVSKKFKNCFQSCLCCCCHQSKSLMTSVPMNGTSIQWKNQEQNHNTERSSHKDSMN
Protocol: as §1

ETB receptor = biological target: T3, ETB receptor (Rattus norvegicus, UniProt P21451); test: Receptor selectivity, rat trachea; details: read-out: pKB ETB (converted)
T3 construct: from tissue; host or cells: rat trachea
T3 sequence (P21451 27-442): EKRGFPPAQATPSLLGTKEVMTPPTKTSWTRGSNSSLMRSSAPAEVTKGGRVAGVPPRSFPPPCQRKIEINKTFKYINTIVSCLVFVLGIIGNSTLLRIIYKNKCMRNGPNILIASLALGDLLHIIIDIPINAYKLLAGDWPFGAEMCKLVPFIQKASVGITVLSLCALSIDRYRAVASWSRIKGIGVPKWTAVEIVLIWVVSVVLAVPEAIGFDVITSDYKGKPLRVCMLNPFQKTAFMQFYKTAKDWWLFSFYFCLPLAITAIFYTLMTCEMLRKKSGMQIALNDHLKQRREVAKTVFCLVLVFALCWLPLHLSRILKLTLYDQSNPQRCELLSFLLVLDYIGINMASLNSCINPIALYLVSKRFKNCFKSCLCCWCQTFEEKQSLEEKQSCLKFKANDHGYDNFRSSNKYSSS
Protocol: as §1

Angiotensin II receptor = biological target: T4, Angiotensin II receptor (Oryctolagus cuniculus, UniProt P34976); test: Receptor selectivity, rabbit aorta; details: read-out: pKB Angiotensin II (converted)
T4 construct: from tissue; host or cells: rabbit aorta
T4 sequence (P34976 1-359): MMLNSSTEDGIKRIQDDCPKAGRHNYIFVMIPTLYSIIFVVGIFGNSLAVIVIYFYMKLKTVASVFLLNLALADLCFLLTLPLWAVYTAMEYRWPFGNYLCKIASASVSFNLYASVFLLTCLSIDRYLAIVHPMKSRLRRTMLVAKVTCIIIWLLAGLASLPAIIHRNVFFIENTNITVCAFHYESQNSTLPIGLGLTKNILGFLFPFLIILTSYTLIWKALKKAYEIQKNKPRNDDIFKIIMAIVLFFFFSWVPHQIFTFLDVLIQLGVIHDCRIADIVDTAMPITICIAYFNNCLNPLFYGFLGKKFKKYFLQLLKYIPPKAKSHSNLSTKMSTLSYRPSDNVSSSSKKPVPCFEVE
Protocol: as §1

T1 sequence (P18090 whole entry): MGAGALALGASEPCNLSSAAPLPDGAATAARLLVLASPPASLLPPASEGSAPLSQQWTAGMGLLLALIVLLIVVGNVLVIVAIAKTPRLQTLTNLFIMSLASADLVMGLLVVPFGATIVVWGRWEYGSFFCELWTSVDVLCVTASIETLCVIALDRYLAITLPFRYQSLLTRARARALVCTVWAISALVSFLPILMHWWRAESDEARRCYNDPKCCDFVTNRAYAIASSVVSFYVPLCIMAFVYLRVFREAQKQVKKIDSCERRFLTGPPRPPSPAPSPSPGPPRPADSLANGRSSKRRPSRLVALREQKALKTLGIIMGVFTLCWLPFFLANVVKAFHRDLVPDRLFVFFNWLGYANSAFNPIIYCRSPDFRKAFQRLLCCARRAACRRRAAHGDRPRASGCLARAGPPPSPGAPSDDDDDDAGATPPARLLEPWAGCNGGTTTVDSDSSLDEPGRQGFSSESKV

SMILES | Kb (β1-adrenoceptor) | Kb (ETA) | Kb (ETB receptor) | Kb (Angiotensin II receptor)
COc1ccccc1N1CCN(CCCN2C(=O)CCC2=O)CC1 [Compound 2, 1-[4-(2-Methoxyphenyl)piperazin-1-yl]3-(2,5-dioxopyrrolidin-1-yl)propane] | 63.1 µM | – | – | –
COc1ccccc1N1CCN(CCCCN2C(=O)CCC2=O)CC1 [Compound 9, 1-[4-(2-Methoxyphenyl)piperazin-1-yl]-4-(2,5-dioxopyrrolidin-1-yl)butane] | – | 50.1 µM | 3.98 µM | 2.51 µM
COc1ccccc1N1CCN(CCCN2C(=O)CCCC2=O)CC1 [Compound 13, 1-[4-(2-Methoxyphenyl)piperazin-1-yl]-3-(2,6-dioxopiperidin-1-yl)propane] | 7.94 µM | 50.1 µM | 12.6 µM | 5.01 µM
